Experimental data from ChEMBL document CHEMBL1201862, “PubChem BioAssay data set” (2004).
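Values below derive from 48-hour exposures of cells grown in 96-well plates, with endpoints linearly interpolated between the two concentrations bracketing the appropriate inhibition level. GI50: concentration for 50% inhibition of growth.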 Active and inactive are the calls of the source. Cut-off read from the data, not from the text of the source: active = GI50 up to about 1.1 µM and inactive = higher.

Columns and labels:
Assay in all cases: inhibition of tumour cell growth, NCI panel, 48 h
K562 = system: K562
IGROV-1 = system: IGROV-1
SW-620 = system: SW-620
CAKI-1 = system: CAKI-1
TK-10 = system: TK-10
A549 = system: A549
RPMI-8226 = system: RPMI-8226
SF-295 = system: SF-295
MDA-N = system: MDA-N
HL-60 = system: HL-60
NCI-H226 = system: NCI-H226
COLO 205 = system: COLO 205
PC-3 = system: PC-3
786-0 = system: 786-0
HOP-62 = system: HOP-62
SF-268 = system: SF-268
SK-MEL-28 = system: SK-MEL-28
NCI-H23 = system: NCI-H23
NCI-H522 = system: NCI-H522
T47D = system: T47D

| SMILES | GI50 (K562) | GI50 (IGROV-1) | GI50 (SW-620) | GI50 (CAKI-1) | GI50 (TK-10) | GI50 (A549) | GI50 (RPMI-8226) | GI50 (SF-295) | GI50 (MDA-N) | GI50 (HL-60) | GI50 (NCI-H226) | GI50 (COLO 205) | GI50 (PC-3) | GI50 (786-0) | GI50 (HOP-62) | GI50 (SF-268) | GI50 (SK-MEL-28) | GI50 (NCI-H23) | GI50 (NCI-H522) | GI50 (T47D) |
| --- | --- | --- | --- | --- | --- | --- | --- | --- | --- | --- | --- | --- | --- | --- | --- | --- | --- | --- | --- | --- |
| CC[C@@]1(O)C(=O)OCc2c1cc1n(c2=O)Cc2cc3c(NC(=O)CN)cccc3nc2-1 | 1.37 µM (inactive) | 3.42 µM (inactive) | 2.07 µM (inactive) | < 0.01 µM (active) | 10.4 µM (inactive) | 0.766 µM (active) | 1.88 µM (inactive) | 0.115 µM (active) | 2.1 µM (inactive) | < 0.0362 µM (active) | 0.217 µM (active) | 6.1 µM (inactive) | 4.92 µM (inactive) | 0.0612 µM (active) | 0.109 µM (active) | < 0.024 µM (active) | 7.05 µM (inactive) | 0.114 µM (active) | 0.277 µM (active) | < 0.0236 µM (active) |
| c1ccc(NN(Cc2cnccn2)c2ccccc2)cc1 | 47.5 µM (inactive) | 83.2 µM (inactive) | > 100 µM (inactive) | > 100 µM (inactive) | > 100 µM (inactive) | 42.2 µM (inactive) | 55.7 µM (inactive) | 73.8 µM (inactive) | 40.2 µM (inactive) | 67.5 µM (inactive) | 80.2 µM (inactive) | 84.3 µM (inactive) | 65.8 µM (inactive) | > 100 µM (inactive) | > 100 µM (inactive) | > 100 µM (inactive) | > 100 µM (inactive) | 83 µM (inactive) | 44 µM (inactive) | 68.4 µM (inactive) |
| CN(C)c1ccc(/C=C/c2cc[n+](C)c3ccccc23)cc1 | 0.418 µM (active) | 5.16 µM (inactive) | 2.44 µM (inactive) | 2.79 µM (inactive) | 3.71 µM (inactive) | 3.86 µM (inactive) | 2.95 µM (inactive) | 3.84 µM (inactive) | 2.27 µM (inactive) | 0.748 µM (active) | 2.53 µM (inactive) | 1.36 µM (inactive) | 1.73 µM (inactive) | 4.27 µM (inactive) | 4.63 µM (inactive) | 6.1 µM (inactive) | 5.32 µM (inactive) | 2.11 µM (inactive) | 1.98 µM (inactive) | 0.652 µM (active) |
| Cc1ccc2c(=O)cc(-c3ccc(-c4ccccc4)s3)[nH]c2n1 | 11.9 µM (inactive) | 34.9 µM (inactive) | > 31.5 µM (inactive) | 45 µM (inactive) | > 48.3 µM (inactive) | 58.6 µM (inactive) | 4.53 µM (inactive) | > 28.8 µM (inactive) | 4.98 µM (inactive) | > 23.6 µM (inactive) | 29.1 µM (inactive) | > 100 µM (inactive) | 6.03 µM (inactive) | 16.1 µM (inactive) | 30.6 µM (inactive) | > 63 µM (inactive) | > 100 µM (inactive) | 22.1 µM (inactive) | > 19.7 µM (inactive) | > 76.7 µM (inactive) |
| Cc1cc(-c2nc3ccc(F)cc3s2)ccc1NC(=O)C(N)CCCCN (stereo not given) | 3.45 µM (inactive) | 0.617 µM (active) | 2.9 µM (inactive) | 9.64 µM (inactive) | 0.0731 µM (active) | 2.64 µM (inactive) | 3.31 µM (inactive) | 6.93 µM (inactive) | 2.52 µM (inactive) | 2.9 µM (inactive) | 2.44 µM (inactive) | 4.51 µM (inactive) | 9.53 µM (inactive) | 3.21 µM (inactive) | 3.22 µM (inactive) | 6.7 µM (inactive) | 18.4 µM (inactive) | 4.73 µM (inactive) | 5.9 µM (inactive) | 0.027 µM (active) |
| OC(c1cc2ccccc2o1)c1cc2ccccc2s1 (stereo not given) | 4.57 µM (inactive) | > 10 µM (inactive) | > 10 µM (inactive) | > 10 µM (inactive) | > 10 µM (inactive) | > 10 µM (inactive) | > 10 µM (inactive) | > 10 µM (inactive) | 3.94 µM (inactive) | > 10 µM (inactive) | > 10 µM (inactive) | > 10 µM (inactive) | 8.57 µM (inactive) | > 10 µM (inactive) | > 10 µM (inactive) | > 10 µM (inactive) | > 10 µM (inactive) | > 10 µM (inactive) | > 10 µM (inactive) | > 10 µM (inactive) |
| CC1(C)CCCCCCCCCC(C)(CCCCCCCCCCCCO)C1=O (stereo not given) | 20 µM (inactive) | 19.1 µM (inactive) | 18.3 µM (inactive) | 20.7 µM (inactive) | 17.7 µM (inactive) | 16.1 µM (inactive) | 18.7 µM (inactive) | 16.2 µM (inactive) | 18.6 µM (inactive) | 15.7 µM (inactive) | 9.84 µM (inactive) | 28.6 µM (inactive) | 17.4 µM (inactive) | 18.6 µM (inactive) | 22.5 µM (inactive) | 17.3 µM (inactive) | 18.2 µM (inactive) | 18.7 µM (inactive) | 16.5 µM (inactive) | 16.8 µM (inactive) |
| Clc1ccc(/C=C/c2nc(Cl)c(-c3ccc(Cl)cc3)c(Cl)n2)cc1 | 32.1 µM (inactive) | 60 µM (inactive) | 68.7 µM (inactive) | 74.8 µM (inactive) | 62.5 µM (inactive) | 37.9 µM (inactive) | 23.8 µM (inactive) | 52.1 µM (inactive) | 59.4 µM (inactive) | 14.3 µM (inactive) | 80.9 µM (inactive) | > 100 µM (inactive) | 42.6 µM (inactive) | 43.8 µM (inactive) | > 100 µM (inactive) | > 100 µM (inactive) | > 100 µM (inactive) | 27.1 µM (inactive) | 31.5 µM (inactive) | 38.3 µM (inactive) |
| CCCCCCCCCCCCCCCCC(=O)NCC(=O)NCC(=O)NC(Cc1ccccc1)C(=O)Oc1ccc([N+](=O)[O-])cc1 (stereo not given) | 23.3 µM (inactive) | > 100 µM (inactive) | 19.4 µM (inactive) | 17.2 µM (inactive) | 71 µM (inactive) | > 10 µM (inactive) | 21 µM (inactive) | 23 µM (inactive) | 48.5 µM (inactive) | 50 µM (inactive) | 35 µM (inactive) | 20.2 µM (inactive) | 31.5 µM (inactive) | 27.5 µM (inactive) | 22 µM (inactive) | 23.3 µM (inactive) | 15.8 µM (inactive) | 73.1 µM (inactive) | 26.7 µM (inactive) | 30.7 µM (inactive) |
| O=C1CSCC(=O)Nc2ccccc2N1 | > 100 µM (inactive) | > 100 µM (inactive) | > 100 µM (inactive) | > 100 µM (inactive) | > 100 µM (inactive) | > 100 µM (inactive) | > 100 µM (inactive) | > 100 µM (inactive) | > 100 µM (inactive) | > 100 µM (inactive) | > 100 µM (inactive) | > 100 µM (inactive) | > 100 µM (inactive) | > 100 µM (inactive) | > 100 µM (inactive) | > 100 µM (inactive) | > 100 µM (inactive) | > 100 µM (inactive) | > 100 µM (inactive) | > 100 µM (inactive) |
| Cc1ccc2c(O)c3c(cc2c1)C(=O)c1c2c(cc(O)c1C3=O)C1(C)OC(O2)C(O)C(N(C)C)C1O (stereo not given) | 0.167 µM (active) | 0.912 µM (active) | 1.02 µM (active) | 0.794 µM (active) | 1.69 µM (inactive) | 0.719 µM (active) | 0.29 µM (active) | 1.09 µM (active) | 1.63 µM (inactive) | 0.155 µM (active) | 1.15 µM (inactive) | 0.91 µM (active) | 1.05 µM (active) | 0.617 µM (active) | 1.01 µM (active) | 3.65 µM (inactive) | 1.32 µM (inactive) | 1.26 µM (inactive) | 1.22 µM (inactive) | 0.656 µM (active) |
| CSc1c(C#N)c(N)nc2c(/N=N\c3ccc(Br)cc3)c(N)nn12 | 2.75 µM (inactive) | 3.01 µM (inactive) | 5.64 µM (inactive) | 12.6 µM (inactive) | 15 µM (inactive) | 8.99 µM (inactive) | 9.84 µM (inactive) | 8.63 µM (inactive) | 6.71 µM (inactive) | 2.82 µM (inactive) | 21.5 µM (inactive) | 10 µM (inactive) | 8.3 µM (inactive) | 6.17 µM (inactive) | 11.4 µM (inactive) | 5.82 µM (inactive) | 10.7 µM (inactive) | 6.25 µM (inactive) | 6.41 µM (inactive) | 2 µM (inactive) |
| Cc1ccnc(NC(NC(=O)c2ccccc2)(C(F)(F)F)C(F)(F)F)c1 | > 100 µM (inactive) | > 100 µM (inactive) | > 100 µM (inactive) | > 100 µM (inactive) | > 100 µM (inactive) | > 100 µM (inactive) | 18.2 µM (inactive) | > 100 µM (inactive) | > 100 µM (inactive) | > 100 µM (inactive) | > 100 µM (inactive) | > 100 µM (inactive) | > 100 µM (inactive) | > 100 µM (inactive) | > 100 µM (inactive) | > 100 µM (inactive) | > 100 µM (inactive) | > 100 µM (inactive) | > 100 µM (inactive) | > 100 µM (inactive) |
| O=C1CCCC1C(O)(C(F)(F)F)C(F)(F)F (stereo not given) | > 100 µM (inactive) | > 100 µM (inactive) | > 100 µM (inactive) | > 100 µM (inactive) | > 100 µM (inactive) | > 100 µM (inactive) | > 100 µM (inactive) | > 100 µM (inactive) | > 100 µM (inactive) | > 100 µM (inactive) | > 100 µM (inactive) | > 100 µM (inactive) | > 100 µM (inactive) | > 100 µM (inactive) | > 100 µM (inactive) | > 100 µM (inactive) | > 100 µM (inactive) | > 100 µM (inactive) | > 100 µM (inactive) | > 100 µM (inactive) |
